According to patent US20130085073A1, “CONTINUOUS EXTENSION AND DEBLOCKING IN REACTIONS FOR NUCLLEIC ACIDS SYNTHESIS AND SEQUENCING” (ILLUMINA CAMBRIDGE LIMITED, priority 2011, published 2013):

What was measured:
[1] = Fluorescence emission of quencher/dye labelled nucleotide; type: physicochemical
Procedure: The fluorescence emission of an approx. 4 μM solution of the quencher/dye labelled nucleotide 22, a 4 μM solution of Atto532 dye and an equimolar mixture of Atto532 dye and quencher labelled nucleotide 21 (4 μM) were measured in 10 mM Tris buffer pH 8.0, between 500 nm and 700 nm (excitation wavelength: 532 nm) (FIG. 23). The fluorescence of the nucleotide 22 was approximately 1500-fold lower than that of the free dye in solution, and approximately 1100-fold lower than the equimolar solution of the free dye and the quencher labelled nucleotide 21.

Bst = target: T1, Bst (Geobacillus stearothermophilus, UniProt P52026); experiment: Bst polymerase primer extension with blocked nucleotide analog (gel analysis); type: biochemical
T1 sequence (P52026 1-876): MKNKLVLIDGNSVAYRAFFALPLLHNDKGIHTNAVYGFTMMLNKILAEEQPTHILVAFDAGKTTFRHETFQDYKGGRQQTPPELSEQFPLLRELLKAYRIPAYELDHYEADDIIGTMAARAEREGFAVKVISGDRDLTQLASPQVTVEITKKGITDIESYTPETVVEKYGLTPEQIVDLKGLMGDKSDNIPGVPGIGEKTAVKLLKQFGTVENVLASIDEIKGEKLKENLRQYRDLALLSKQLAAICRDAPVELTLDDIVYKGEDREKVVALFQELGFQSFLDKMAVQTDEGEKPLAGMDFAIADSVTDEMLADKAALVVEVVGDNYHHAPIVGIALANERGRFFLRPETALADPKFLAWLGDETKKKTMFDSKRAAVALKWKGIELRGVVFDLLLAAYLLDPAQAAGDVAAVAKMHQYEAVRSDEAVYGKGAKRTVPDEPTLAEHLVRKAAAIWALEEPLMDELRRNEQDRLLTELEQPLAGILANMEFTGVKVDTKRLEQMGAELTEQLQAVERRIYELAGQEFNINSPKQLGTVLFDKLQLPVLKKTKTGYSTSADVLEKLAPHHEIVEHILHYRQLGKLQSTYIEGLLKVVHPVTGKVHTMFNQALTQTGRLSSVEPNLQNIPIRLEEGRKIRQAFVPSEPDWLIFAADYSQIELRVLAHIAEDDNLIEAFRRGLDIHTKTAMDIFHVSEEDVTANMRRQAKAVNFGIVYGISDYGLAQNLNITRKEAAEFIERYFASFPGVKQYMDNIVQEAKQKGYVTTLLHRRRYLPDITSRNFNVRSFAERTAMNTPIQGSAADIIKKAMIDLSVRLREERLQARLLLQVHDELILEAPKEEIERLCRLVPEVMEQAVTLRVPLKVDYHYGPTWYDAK
Procedure: Incorporation of gamma hexynyl-pppT3′PO4Me2 was tested in Pol buffer at 65° C. with 10 μM nucleotide and 15 μg/mlpolymerase (Pol217 or Bst). A time zero sample was removed before initiation of the reaction with nucleotide and aliquots were quenched for gel analysis at 0.33, 0.66, 1, 2, 5 and 15 minutes. After 15 minutes, 5 μl of 100 μM dNTPs was added to the remaining reaction tubes (˜20 μl) and incubation continued for 10 mins before a chase aliquot was taken for gel analysis. Thus, for each polymerase there was a time course of 0, 0.33, 0.66, 1, 2, 5, 15 mins and chase shown from left to right across the gel in FIG. 13.

Pol 217 = Pol 217 catalyzed primer extension: incorporation of blocked nucleotide analog into primer DNA (urea gel analysis); type: biochemical; conditions: for incorporation of phosphodiester blocked nucleotides by Pol 217: nucleotide 10 μM
Procedure: Pol 217 (15 μg/ml) was incubated at 30° C. in Pol buffer (50 mM TRIS pH 7.5, 0.05% Tween 20, 6 mM MgSO4, 1 mM EDTA, 50 mM NaCl) with 20 nM DNA (P21 primer annealed to Diff template AG). A time zero aliquot was taken for each concentration and then pppT3′PO4(EO2 was added at 10, 5, 2 or 1 μM final concentration to start the reaction. Tubes are incubated at 30° C. and aliquots were taken at 0.33, 0.66, 1, 2, 5, and 15 mins from the 4 reaction tubes for quenching and 15% urea acrylamide gel analysis. 1 mM dNTPs were added to the remaining 4 reaction tubes and after a further 10 mins an aliquot was taken for gel analysis (chase).
Pol 217 was tested in Pol buffer at 55° C.
Incorporation of gamma hexynyl-pppT3′PO4Me2 was tested in Pol buffer at 65° C. with 10 μM nucleotide and 15 μg/mlpolymerase (Pol217 or Bst). A time zero sample was removed before initiation of the reaction with nucleotide and aliquots were quenched for gel analysis at 0.33, 0.66, 1, 2, 5 and 15 minutes.

Endonuclease IV = Endonuclease IV (Escherichia coli, UniProt P0A6C1); conditions: 0.1 mM nucleotide, 500 units/mL Endonuclease IV, 37° C., pH 7.9, up to 3 days
Text: Aliquots were taken at set time points and analyzed by HPLC chromatography.

E. coli EndoIV = E. coli EndoIV (Escherichia coli, UniProt P0A6C1); conditions: for EndoIV removal of phosphotriester blocking moiety from primer DNA extended with the nucleotide: large quantities of E. coli EndoIV, 37° C. or 55° C., extended incubation times
Procedure: Primer DNA with either a 3′ PO4PrOH block (−ve and EndoIV) or a free 3′OH (+ve) was radiolabelled and bound to an A template strand. […] Aliquots were removed at 0, 5, 15, 30 and 60 min for quenching and gel analysis (left to right respectively). “+ve” is the time course for unblocked DNA plus EndoIV, “EndoIV” is blocked DNA plus E. coli EndoIV and “−ve” is blocked DNA without E. coli EndoIV.
Similar reactions to those described above in the context of FIG. 7 were conducted, but the blocked extension products were generated using Pol 217 to incorporate various phosphotriester nucleotides onto the primer DNA. […] Phosphotriester blocking moieties tested included pppT3′PO4(Et)2, pppT3′PO4(Et)(Pr-Cap), pppT3′PO4(Et)(PrOH), pppT3′PO4MeBu and pppT3′PO4(Et)(SSOH).
A ^33P biotinylated 10 A template hairpin (62mer) was bound to magnetic streptavidin beads (4 pmoles) (1) and incubated with Pol217 (15 μg/ml) in Pol buffer and 10 μM pppT3′PO4MeBu for 10 mins at 55° C. […] The DNA was then removed to a magnet and washed twice in 1×B+W buffer (5 mM TRIS pH 7.5, 0.5 mM EDTA, 1M NaCl) and then washed twice in Ada buffer (50 mM TRIS pH 8.3, 1 mM EDTA, 3 mM DTT, 1 mg/ml BSA). The DNA was then incubated in Ada buffer with Ada protein (225 pmoles) at 37° C. for 3 h (3). The DNA was then removed to a magnet and washed twice in 1×B+W and then twice in NEB 3 buffer and then divided into 2 aliquots. To one aliquot (4) (2 pmoles) was added Pol 217 (15 μg/ml), E. coli EndoIV 10 U and FFT (5 μM) in NEB 3 buffer to a total volume of 100 μl. The sample was incubated at 37° C. and at time points of 0, 3, 10, 30, 60 and 120 mins a 5 μl sample was removed and quenched for 12% gel analysis. After 120 mins 10 μl of 100 μM dNTP was added to the remaining sample to chase the primer to the end (if not blocked) and an aliquot was taken and quenched after a further 20 mins at 37° C. […] The second aliquot (2 pmoles) was treated similarly, but no E. coli Endo IV was added to the reaction mixture (w/o EndoIV).
Eight pmoles of biotinylated 10 A hairpin DNA (62mer) bound to magnetic streptavidin beads (1) was incubated with Pol 217 (15 μg/ml) in Pol buffer with 10 μM pppT3′PO4(Et)(SSOH) in 200 μl at 55° C. for 15 mins (2). Then 2 μl of 100 mM tri(hydroxylpropyl)phosphine (THP) was added to the tube and the samples incubated for a further 5 mins at 55° C. […] The DNA was then removed to a magnet and washed twice in 1×B+W and twice in NEB 3 buffer. The DNA was then divided into two aliquots. To the first aliquot (4 pmoles) was added 4 U E. coli EndoIV, 15 μg/ml Pol 217, 10 μM pppT3′PO4MeBu in 100 μl of NEB3 buffer (4) and the other aliquot (4 pmoles) had the same additions but no EndoIV (w/o EndoIV). At time points of 0, 1, 5, 10, 30, 60 and 120 mins and sample was removed and quenched for 12% gel analysis.

Vent exo- = Vent exo- (Thermococcus litoralis, UniProt P30317, D141A/DEL1082-1471/DEL495-1032/E143A); experiment: Vent exo- polymerase primer extension with blocked nucleotide analog (gel analysis); type: biochemical; conditions: conditions tested; chase lane showed active polymerase
Klenow = target: T2, Klenow (Escherichia coli, UniProt P00582); experiment: Klenow polymerase primer extension with blocked nucleotide analog (gel analysis); type: biochemical; conditions: conditions tested; chase lane showed active polymerase
T2 construct: Bst, Vent exo- and Klenow polymerases were tested

Pol 427 = Pol 427 catalyzed primer extension: incorporation of blocked nucleotide analog (gel analysis); type: biochemical; conditions: Pol buffer, 37° C., 1 h, Pol 427 30 μg/ml
[2] = tested on: Pol 217, E. coli Endo IV, Ada protein; experiment: Single pot multi-cycle extension with Pol 217, Ada protein and Endo IV (gel); type: biochemical; conditions: 37° C., 10 μM nucleotide
Procedure: A tube was incubated at 37° C. containing Pol 217 (15 μg/ml-16.5 pmoles), E. coli Endo IV (10 U), Ada protein (1000 pmoles) in 100 μl of 50 mM TRIS pH 8.0, 1 mg/ml BSA, 50 mM NaCl, 10 mM MgSO4 with 2 pmoles of primer (21mer) annealed to 10 A template DNA. After a time zero aliquot was removed and quenched for gel analysis, the reaction was started by the addition of 10 μM pppT3′PO4MeBu. At time points of 10, 30, 60, 120 and 240 minutes an aliquot was removed and quenched for gel analysis. Negative controls are shown where one protein was left out of the mixture in turn. A positive control for incorporation is shown of 10 μM FFT.

[3] = approx. 4 μM, 10 mM Tris pH 8.0, excitation 532 nm

T2 sequence (P00582 324-928): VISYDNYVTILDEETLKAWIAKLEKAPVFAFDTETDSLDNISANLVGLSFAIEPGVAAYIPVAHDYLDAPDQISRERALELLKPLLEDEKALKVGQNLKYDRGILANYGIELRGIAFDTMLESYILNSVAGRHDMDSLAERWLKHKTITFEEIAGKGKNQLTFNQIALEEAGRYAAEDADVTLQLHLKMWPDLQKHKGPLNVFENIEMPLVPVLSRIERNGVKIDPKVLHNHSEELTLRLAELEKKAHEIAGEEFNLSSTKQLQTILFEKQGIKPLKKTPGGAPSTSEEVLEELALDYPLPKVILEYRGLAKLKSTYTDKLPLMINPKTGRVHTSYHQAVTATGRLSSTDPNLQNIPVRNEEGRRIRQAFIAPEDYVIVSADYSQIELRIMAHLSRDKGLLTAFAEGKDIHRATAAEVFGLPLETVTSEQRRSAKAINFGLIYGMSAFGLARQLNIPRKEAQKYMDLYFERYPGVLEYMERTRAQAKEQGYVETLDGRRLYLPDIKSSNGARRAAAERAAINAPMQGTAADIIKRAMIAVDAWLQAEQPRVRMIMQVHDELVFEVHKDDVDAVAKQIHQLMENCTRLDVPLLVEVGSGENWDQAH
Chain of Vent exo- (P30317 other isoform, or with tags, fused parts or gaps D141A/E143A/DEL495-1032/DEL1082-1471): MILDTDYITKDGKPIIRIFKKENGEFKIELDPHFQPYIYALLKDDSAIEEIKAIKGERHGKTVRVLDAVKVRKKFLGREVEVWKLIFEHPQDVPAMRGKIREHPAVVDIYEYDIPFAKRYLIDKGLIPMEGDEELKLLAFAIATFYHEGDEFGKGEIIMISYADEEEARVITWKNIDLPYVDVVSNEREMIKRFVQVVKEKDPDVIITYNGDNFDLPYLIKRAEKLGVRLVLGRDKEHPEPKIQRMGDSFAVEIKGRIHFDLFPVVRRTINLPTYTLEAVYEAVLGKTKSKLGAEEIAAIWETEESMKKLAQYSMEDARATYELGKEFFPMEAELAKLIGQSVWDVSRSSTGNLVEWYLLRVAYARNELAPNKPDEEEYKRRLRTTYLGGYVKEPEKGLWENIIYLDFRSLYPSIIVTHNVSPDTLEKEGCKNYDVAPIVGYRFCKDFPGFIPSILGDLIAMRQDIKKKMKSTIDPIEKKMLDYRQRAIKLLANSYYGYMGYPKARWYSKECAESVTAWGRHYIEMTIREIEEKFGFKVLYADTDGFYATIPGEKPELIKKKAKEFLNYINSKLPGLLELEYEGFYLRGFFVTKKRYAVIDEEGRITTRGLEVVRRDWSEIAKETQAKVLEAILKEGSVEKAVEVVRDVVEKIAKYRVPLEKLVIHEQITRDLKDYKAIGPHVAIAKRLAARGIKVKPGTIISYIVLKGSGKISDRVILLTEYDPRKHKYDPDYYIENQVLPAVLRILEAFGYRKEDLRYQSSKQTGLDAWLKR

## 5′-(γ-(BHQ2-peg3)triphosphate) 3′-(O-(12-(Atto532)amidododecyl)phosphate)thymidine [nucleotide 22]
[1]; [3]
  fluorescence lower than that of the free dye (Atto532) in solution: approximately 1500 fold
  fluorescence lower than the equimolar solution of free dye and quencher labelled nucleotide 21: approximately 1100 fold
[1]; dye and quencher both on the nucleotide
  quenching of fluorescence emission by BHQ2: > 99%

## 5′-(γ-(BHQ2-peg3)triphosphate) 3′-(O-(12-aminododecyl)phosphate)thymidine [nucleotide 21]
[1]; 4 μM each, 10 mM Tris pH 8.0, excitation 532 nm
  quenching of free Atto532 dye by quencher labelled nucleotide in equimolar mixture: does not quench efficiently

## C#CCCCCOP(=O)(O)OP(=O)(O)OP(=O)(O)OCC1OC(n2cc(C)c(=O)[nH]c2=O)CC1OP(=O)(OC)OC (stereo not drawn) [gamma hexynyl-pppT3′PO4Me2, 5′-(γ-(5-hexynyl)triphosphate) 3′-(O,O′-dimethyl phosphate) thymidine]
Bst; Pol buffer, 65° C., 10 μM nucleotide
  band for extended primer with Bst: absent
Pol 217; Pol buffer, 65° C., 10 μM nucleotide, 0-15 min then dNTP chase
  incorporation by Pol 217 and chase: an incorporation band of n+1 was generated over time which did not chase away

## CCOP(=O)(O)OC1CC(n2cc(C)c(=O)[nH]c2=O)OC1COP(=O)(O)O (stereo not drawn) [pT-3′PO4Et, 5′ monophosphate T-3′PO4Et]
Endonuclease IV
  removal of 3′ phosphodiester blocking moiety from free nucleotide by EndoIV (HPLC): No deblocked pT-3′PO4Et was observed even after 3 days

## CCOP(=O)(OCC)O[C@H]1C[C@H](n2cc(C)c(=O)[nH]c2=O)O[C@@H]1COP(=O)(O)OP(=O)(O)OP(=O)(O)O [pppT3′PO4(Et)2, 5′-triphosphate 3′-(O,O′-diethyl phosphate) thymidine]
E. coli EndoIV
  EndoIV removal of phosphotriester blocking moiety from primer DNA extended with the nucleotide: failed to allow subsequent incorporation
Vent exo-
  incorporation by Vent exo- polymerase: did not show any incorporation bands
Bst; conditions tested, chase lane showed active polymerase
  incorporation by Bst polymerase: did not show any incorporation bands
Pol 217; 30° C., 1 mM dNTPs chase, 10 mins
  extension of primer after chase with natural dNTPs (3′ block): creates a 3′ blocked primer
Pol 217; 30° C., Pol buffer, nucleotide 10, 5, 2 or 1 μM, 20 nM DNA, 0-15 min
  incorporation into primer DNA by Pol 217 (n+1 band): extension by one base
Pol 217; 65° C., incorporation buffer, 10 μM nucleotide
  time to complete incorporation by Pol217: ≤ 20 s
Klenow
  incorporation by Klenow polymerase: did not show any incorporation bands

## CCOP(=O)(OCc1cc2c(cc1[N+](=O)[O-])OCO2)O[C@H]1C[C@H](n2cc(C)c(=O)[nH]c2=O)O[C@@H]1COP(=O)(O)OP(=O)(O)OP(=O)(O)O (stereo partly drawn) [pppT3′PO4(Et)(NPIP), 5′-triphosphate 3′-(O-ethyl, O′-(6-nitropiperonyl)phosphate) thymidine]
Pol 427
  incorporation into primer by Pol 427: converted to n+1

## CCOP(=O)(OCCCO)OC1CC(n2cc(C)c(=O)[nH]c2=O)OC1COP(=O)(O)OP(=O)(O)OP(=O)(O)O (stereo not drawn) [pppT3′PO4(Et)(PrOH)]
E. coli EndoIV
  EndoIV removal of phosphotriester blocking moiety from primer DNA extended with the nucleotide: failed to allow subsequent incorporation

## CCOP(=O)(O)O[C@H]1C[C@H](n2cc(C)c(=O)[nH]c2=O)O[C@@H]1COP(=O)(O)OP(=O)(O)OP(=O)(O)O [pppT3′PO4Et, 5′ triphosphate 3′ (O-ethyl phosphate) thymidine]
Pol 217; Pol buffer, 55° C.
  incorporation of phosphodiester blocked nucleotides by Pol 217: low level incorporation was observed

## CCCCOP(=O)(OC)O[C@H]1C[C@H](n2cc(C)c(=O)[nH]c2=O)O[C@@H]1COP(=O)(O)OP(=O)(O)OP(=O)(O)O (stereo partly drawn) [pppT3′PO4MeBu, 5′ triphosphate 3′ (O-methyl, O′-butyl phosphate) thymidine]
E. coli EndoIV; Ada protein 37° C. 3 h, then E. coli EndoIV 10 U, Pol 217, FFT, 37° C., 0-120 mins
  EndoIV unblocking of extended primer after Ada protein treatment: unblocked by EndoIV
E. coli EndoIV
  EndoIV removal of phosphotriester blocking moiety from primer DNA extended with the nucleotide: failed to allow subsequent incorporation
[2]; 10-240 minutes
  length of extension product in single pot reaction, all three proteins present: gradually increased over the time course from n+1 to n+2, then n+3, then n+4
[2]; no Ada or no EndoIV
  incorporation in single pot reaction in the absence of Ada or EndoIV: a single incorporation event occurred
Pol 217; Pol buffer, 55° C., 10 μM nucleotide, 10-15 mins
  incorporation into 10 A hairpin DNA on streptavidin beads by Pol 217: converted to n+1

## Cc1cn(C2CC(OP(=O)(O)OCCCO)C(COP(=O)(O)OP(=O)(O)OP(=O)(O)O)O2)c(=O)[nH]c1=O (stereo not drawn) [pppT3′PO4PrOH]
Pol 217; Pol buffer, 55° C.
  incorporation of phosphodiester blocked nucleotides by Pol 217: substantial incorporation was not observed

## Cc1cn(C2CC(OP(=O)(O)O)C(COP(=O)(O)OP(=O)(O)OP(=O)(O)O)O2)c(=O)[nH]c1=O (stereo not drawn) [pppT 3′PO4]
Pol 217; Pol buffer, 55° C.
  incorporation of phosphodiester blocked nucleotides by Pol 217: incorporation was observed but the band on the gel chased away
